Experiments:
[1] = In vivo pharmacokinetic study in rats, IV or oral dose of ARI-160
Description: This example describes pharmacokinetic (PK) studies of ARI-158 and ARI-160 in dogs and rats, respectively. In the present studies, the test compounds were given to groups of male beagle dogs and rats (N=3 in each group) intravenously (IV) at 2 mg/kg or orally (PO) at 10 mg/kg. IV doses were formulated in DMSO, while PO doses were formulated in a 50/50 mixture of PEG400 and Tween 80. Blood samples were collected at pre-dose and over a period of 24 hours post-dose. Plasma concentrations of the indolo-phosphoramidate compounds were determined by HPLC.

EMT-6 cancer cells = assay: Anti-tumor activity in EMT-6 syngeneic mouse tumor model; format: in vivo; conditions: 80 mpk
Description: This example describes in vivo studies that evaluated the anti-cancer efficacy of ARI-158 and ARI-160 in syngeneic mouse tumor models. Mice implanted subcutaneously with EMT-6 cancer cells were treated with ARI-158 and ARI-160, or vehicle controls, as described below.
A monolayer culture of tumor cells was maintained in vitro in DMEM or RPMI1640 medium supplemented with 10% fetal bovine serum at 37° C. in an atmosphere of 5% CO2. Cells in exponential growth phase were harvested and quantitated by cell counter before tumor inoculation.
EMT-6 syngeneic mouse tumor models were generated by inoculating female BALB/C 6 mice with EMT-6 cancer cells at their right lower flank.
Each mouse was inoculated subcutaneously with tumor cells in 0.1 mL of PBS. Treatments were started when the mean tumor size reached approximately 80-120 mm^3 (around 100 mm^3). The administration of the test compounds and the animal number in each study group are shown in the study design. The date of tumor cell inoculation was denoted as day 0.
ARI-158 and ARI-160 were dissolved in DMSO at the final concentration of 26.7 mg/ml and stored at room temperature.
Randomization of animals was started when the mean tumor size reached approximately 90 mm^3 to form the mouse study groups. The randomization was performed based on “Matched distribution” method using the multi-task method (StudyDirector™ software, version 3.1.399.19)/randomized block design. […]
Tumor volumes were measured twice per week in two dimensions using a caliper, and the volume was expressed in mm^3 using the formula: […]
where V is tumor volume, L is tumor length (the longest tumor dimension) and W is tumor width (the longest tumor dimension perpendicular to L). Dosing as well as tumor and body weight measurements was conducted in a Laminar Flow Cabinet. The body weights and tumor volumes were measured by using StudyDirector™ software (version 3.1.399.19).
Tumor growth inhibition percentage (TGI %) is an indicator for antitumor activity of a drug compound, and expressed as: […]
where T and C are the mean tumor volume (or weight) of the treated and control groups, respectively, on a given day. Statistical analysis of the difference in mean tumor volume (MTV) among the groups was conducted using the data collected on the day when the MTV of the vehicle group reached the humane endpoints, so that TGI could be derived for all or most mice enrolled in the study.

[2] = IV 2 mg/kg ARI-160, Animal_ID 1
[3] = IV 2 mg/kg ARI-160, Animal_ID 2
[4] = IV 2 mg/kg ARI-160, Animal_ID 3
[5] = PO 10 mg/kg ARI-160, Animal_ID 4
[6] = PO 10 mg/kg ARI-160, Animal_ID 5
[7] = PO 10 mg/kg ARI-160, Animal_ID 6

For `CCC(=O)c1csc(C(=O)c2cn(COP(=O)([O-])[O-])c3cc(F)ccc23)n1.[Na+].[Na+]` [ARI-160], the AUCinf [1, 2] was 5140 ng·h/mL, the AUClast [1, 2] was 5120 ng·h/mL and the Cl [1, 2] was 6.48 mL/min/kg. The Cmax [1, 2] was 16100 ng/mL, the MRTinf [1, 2] was 13.8 min and the MRTlast [1, 2] was 12.6 min. It also gave a Tmax [1, 2] of 4.98 min, a T½ [1, 2] of 37.2 min and a Vss [1, 2] of 0.0898 L/kg. The AUCinf [1, 3] was 3950 ng·h/mL, the AUClast [1, 3] was 3930 ng·h/mL and the Cl [1, 3] was 8.43 mL/min/kg. For the same compound, the Cmax [1, 3] was 12100 ng/mL, the MRTinf [1, 3] was 15.6 min and the MRTlast [1, 3] was 13.8 min. The Tmax [1, 3] was 4.98 min, the T½ [1, 3] was 51.6 min and the Vss [1, 3] was 0.132 L/kg. The AUCinf [1, 4] was 8590 ng·h/mL, the AUClast [1, 4] was 8590 ng·h/mL and the Cl [1, 4] was 3.88 mL/min/kg. For the same compound, the Cmax [1, 4] was 24600 ng/mL, the MRTinf [1, 4] was 10.8 min and the MRTlast [1, 4] was 10.8 min. For the same compound, the Tmax [1, 4] was 4.98 min, the T½ [1, 4] was 54 min and the Vss [1, 4] was 0.042 L/kg. It also gave an AUCinf ([1]; IV 2 mg/kg ARI-160, Mean) of 5890 ng·h/mL, an AUClast ([1]; IV 2 mg/kg ARI-160, Mean) of 5880 ng·h/mL and a Cl ([1]; IV 2 mg/kg ARI-160, Mean) of 6.27 mL/min/kg. The Cmax ([1]; IV 2 mg/kg ARI-160, Mean) was 17600 ng/mL, the MRTinf ([1]; IV 2 mg/kg ARI-160, Mean) was 13.2 min and the MRTlast ([1]; IV 2 mg/kg ARI-160, Mean) was 12.6 min. The Tmax ([1]; IV 2 mg/kg ARI-160, Mean) was 4.98 min, the T½ ([1]; IV 2 mg/kg ARI-160, Mean) was 47.4 min and the Vss ([1]; IV 2 mg/kg ARI-160, Mean) was 0.0878 L/kg. The bioavailability ([1]; IV versus oral dosing) was “better bioavailability with an IV dosing”, the AUCinf [1, 5] was 23.3 ng·h/mL and the AUClast [1, 5] was 13.3 ng·h/mL. The Cmax [1, 5] was 12.7 ng/mL, the MRTinf [1, 5] was 139 min and the MRTlast [1, 5] was 51.8 min. For the same compound, the Tmax [1, 5] was 15 min, the T½ [1, 5] was 94.8 min and the AUCinf [1, 6] was 51.8 ng·h/mL. It also gave an AUClast [1, 6] of 32.1 ng·h/mL, a Cmax [1, 6] of 10.1 ng/mL and an MRTinf [1, 6] of 505 min. The MRTlast [1, 6] was 195 min, the Tmax [1, 6] was 15 min and the T½ [1, 6] was 368 min. The AUCinf [1, 7] was 22.5 ng·h/mL, the AUClast [1, 7] was 11.0 ng·h/mL and the Cmax [1, 7] was 6.75 ng/mL. It also gave an MRTinf [1, 7] of 574 min, an MRTlast [1, 7] of 121 min and a Tmax [1, 7] of 15 min. The T½ [1, 7] was 364 min, the AUCinf ([1]; PO 10 mg/kg ARI-160, Mean) was 32.5 ng·h/mL and the AUClast ([1]; PO 10 mg/kg ARI-160, Mean) was 18.8 ng·h/mL. The Cmax ([1]; PO 10 mg/kg ARI-160, Mean) was 9.85 ng/mL, the F. ([1]; PO 10 mg/kg ARI-160, Mean) was 0.110% and the MRTinf ([1]; PO 10 mg/kg ARI-160, Mean) was 406 min. For the same compound, the MRTlast ([1]; PO 10 mg/kg ARI-160, Mean) was 122 min, the Tmax ([1]; PO 10 mg/kg ARI-160, Mean) was 15 min and the T½ ([1]; PO 10 mg/kg ARI-160, Mean) was 275 min. The “provision of ARI-143” value ([1]; after administration of ARI-160) was “provided ARI-143 after oral as well as IV administration”, the TGI (EMT-6 cancer cells; study day 6) was 0.01% and the TGI (EMT-6 cancer cells; study day 10) was 30.95%. It also gave a TGI (EMT-6 cancer cells; study day 13) of 30.58%, a TGI (EMT-6 cancer cells; study day 17) of 20.47% and a TGI (EMT-6 cancer cells; study day 20) of 32.25%. It also gave a TGI (EMT-6 cancer cells; study day 24) of 33.19%, a TGI (EMT-6 cancer cells; study day 27) of 22.24% and a TGI (EMT-6 cancer cells; study day 31) of 12.40%.
